{"source": "patent US20250382361A1", "about": "“AFFIBODIES, HYDROGELS CONTAINING AFFIBODIES, AND USES THEREOF” (University of Oregon, priority 2024, published 2025)", "molecules": {"B1": {"name": "Moderate Affinity BMP-2 affibody A2-2 (SEQ ID NO: 2), yeast-displayed (designed binder)", "chain": "AEAKYAKEQFNAYVVIFYLPNLTASQKAAFVDALSNDPSQSSELLSEAKKLNDSQAPK"}, "B2": {"name": "BMP-2 affibody A3-2 (SEQ ID NO: 9), yeast-displayed (designed binder)", "chain": "AEAKYAKEQFNAYVVIFYLPNLTASQKAAFVDALSNDPSQSSELLSEAKKLNDSQAPK"}, "B3": {"name": "Moderate Affinity BMP-2 Affibody, soluble, with hexahistidine tag and C-terminal cysteine (SEQ ID NO: 72) (designed binder)", "chain": "AEAKYAKEQFNAYVVIFYLPNLTASQKAAFVDALSNDPSQSSELLSEAKKLNDSQAPKHHHHHHC", "notes": "E. coli-expressed; also called A2-2"}, "B4": {"name": "Recombinant human PDGF-BB (platelet-derived growth factor) (ligand, UniProt P01127 82-190, looked up)", "chain": "SLGSLTIAEPAMIAECKTRTEVFEISRRLIDRTNANFLVWPPCVEVQRCSGCCNNRNVQCRPTQVQLRPVQVRKIEIVRKKPIFKKATVTLEDHLACKCETVAAARPVT", "modifications": "biotinylated (bPDGF) in flow cytometry and off-target BLI; not biotinylated in the Ni-NTA BLI"}, "B5": {"name": "PDGF: Recombinant PDGF-BB (PeproTech) (protein)", "chain": "SLGSLTIAEPAMIAECKTRTEVFEISRRLIDRTNANFLVWPPCVEVQRCSGCCNNRNVQCRPTQVQLRPVQVRKIEIVRKKPIFKKATVTLEDHLACKCETVAAARPVT"}}, "key": {"[1]": {"test_system": "HUVECs", "assay": "Endothelial tube formation assay", "type": "cell-based, human", "protocol": "Human umbilical vein endothelial cells (HUVECs) were seeded in tissue culture flasks at 2,500 cells/cm^2 and cultured in complete Endothelial Growth Medium (Lonza, Walkersville, MD) at 37° C. and 5% CO2. Upon reaching 60-80% confluence, cells were washed with PBS, trypsinized, and seeded at 5,000 or 15,000 cells/well onto 96-well plates pre-coated with 100 μL of Cultrex Reduced Growth Factor Basement Membrane Extract (RGF BME, R&D Systems). HUVECs were allowed to adhere to the coated surface for 2 hours. […] Cells were cultured for 48 hours on a BioTek Lionheart FX automated microscope (Agilent Technologies, Santa Clara, CA) at 37° C. and 5% CO2 with 4× phase contrast time lapse images taken at 4, 8, 12, 16, 20, 24, and 48 hours. Total network length and branching of HUVEC networks were measured from images using the Angiogenesis Analyzer plugin for ImageJ.\nResponses of HUVECs to each of the three growth factors of interest were first studied."}, "[2]": {"test_system": "HUVECs", "assay": "VEGF bioactivity HUVEC proliferation assay (CellTiter-Glo)", "type": "cell-based, human", "details": "VEGF for 96 hours"}, "[3]": {"target": "T1, VEGF165 (Homo sapiens, UniProt P15692)", "T1 construct": "biotin (label as supplied by the vendor); purchased Acro Biosystems", "T1 sequence (P15692 1-191 isoform P15692-4)": "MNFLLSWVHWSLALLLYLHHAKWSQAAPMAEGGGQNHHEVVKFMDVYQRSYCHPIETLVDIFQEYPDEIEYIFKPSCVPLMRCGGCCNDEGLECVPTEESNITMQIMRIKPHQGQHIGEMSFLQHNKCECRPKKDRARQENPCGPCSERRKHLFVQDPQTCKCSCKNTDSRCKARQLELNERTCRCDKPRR", "details": "cited from earlier work"}, "[4]": {"target": "integrin α5β1 (Homo sapiens, UniProt P05556+P08648)", "sequence (P08648 42-894 limits assumed)": "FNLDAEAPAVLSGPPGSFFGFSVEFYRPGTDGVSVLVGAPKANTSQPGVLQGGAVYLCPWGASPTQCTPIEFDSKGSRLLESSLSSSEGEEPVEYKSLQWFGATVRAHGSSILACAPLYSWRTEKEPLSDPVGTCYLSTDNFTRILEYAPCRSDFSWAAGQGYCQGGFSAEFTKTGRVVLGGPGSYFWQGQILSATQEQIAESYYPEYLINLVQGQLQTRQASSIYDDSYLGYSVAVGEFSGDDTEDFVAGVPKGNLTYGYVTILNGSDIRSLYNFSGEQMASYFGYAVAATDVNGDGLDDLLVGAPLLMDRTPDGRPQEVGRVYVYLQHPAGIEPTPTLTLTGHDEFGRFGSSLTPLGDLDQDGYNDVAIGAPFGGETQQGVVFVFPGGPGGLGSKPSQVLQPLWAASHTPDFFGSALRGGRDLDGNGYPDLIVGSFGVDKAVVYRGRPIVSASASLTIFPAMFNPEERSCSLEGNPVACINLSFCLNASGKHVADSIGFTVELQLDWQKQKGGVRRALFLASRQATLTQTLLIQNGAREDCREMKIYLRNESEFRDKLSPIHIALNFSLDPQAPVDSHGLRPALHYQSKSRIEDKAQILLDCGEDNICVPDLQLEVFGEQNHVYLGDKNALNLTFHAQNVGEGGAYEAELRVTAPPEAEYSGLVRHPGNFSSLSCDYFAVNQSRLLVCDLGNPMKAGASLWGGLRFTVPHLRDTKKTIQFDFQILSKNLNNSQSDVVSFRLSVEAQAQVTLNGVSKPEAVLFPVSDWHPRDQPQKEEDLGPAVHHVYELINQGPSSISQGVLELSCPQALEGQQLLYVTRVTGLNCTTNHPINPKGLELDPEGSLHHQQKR", "sequence (P08648 895-1049 limits assumed)": "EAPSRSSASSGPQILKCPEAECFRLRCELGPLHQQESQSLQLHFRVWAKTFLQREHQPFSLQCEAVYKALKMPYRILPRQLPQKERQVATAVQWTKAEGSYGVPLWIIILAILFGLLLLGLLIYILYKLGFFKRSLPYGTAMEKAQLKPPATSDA", "sequence (P05556 21-798)": "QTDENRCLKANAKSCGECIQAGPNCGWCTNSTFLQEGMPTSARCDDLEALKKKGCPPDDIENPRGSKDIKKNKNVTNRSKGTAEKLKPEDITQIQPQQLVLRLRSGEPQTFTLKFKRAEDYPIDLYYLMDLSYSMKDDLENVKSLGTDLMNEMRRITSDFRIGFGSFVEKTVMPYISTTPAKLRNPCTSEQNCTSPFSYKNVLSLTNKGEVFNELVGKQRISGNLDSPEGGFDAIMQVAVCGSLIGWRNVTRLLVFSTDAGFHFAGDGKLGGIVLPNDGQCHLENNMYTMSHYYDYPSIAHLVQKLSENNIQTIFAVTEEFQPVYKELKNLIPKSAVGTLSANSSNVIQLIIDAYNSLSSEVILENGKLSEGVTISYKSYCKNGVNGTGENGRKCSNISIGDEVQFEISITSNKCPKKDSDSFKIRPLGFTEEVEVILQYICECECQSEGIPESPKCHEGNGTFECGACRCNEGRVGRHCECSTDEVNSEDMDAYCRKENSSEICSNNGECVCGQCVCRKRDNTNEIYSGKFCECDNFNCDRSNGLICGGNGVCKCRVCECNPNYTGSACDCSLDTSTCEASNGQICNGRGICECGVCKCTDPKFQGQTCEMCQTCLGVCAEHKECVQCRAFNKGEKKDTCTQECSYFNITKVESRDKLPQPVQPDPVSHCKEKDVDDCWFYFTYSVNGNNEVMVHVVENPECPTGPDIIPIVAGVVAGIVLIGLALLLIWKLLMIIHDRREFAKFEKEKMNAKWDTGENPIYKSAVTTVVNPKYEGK", "details": "cited from earlier work"}, "[5]": {"target": "antithrombin-III (Homo sapiens, UniProt P01008)", "sequence (P01008 33-464, species assumed)": "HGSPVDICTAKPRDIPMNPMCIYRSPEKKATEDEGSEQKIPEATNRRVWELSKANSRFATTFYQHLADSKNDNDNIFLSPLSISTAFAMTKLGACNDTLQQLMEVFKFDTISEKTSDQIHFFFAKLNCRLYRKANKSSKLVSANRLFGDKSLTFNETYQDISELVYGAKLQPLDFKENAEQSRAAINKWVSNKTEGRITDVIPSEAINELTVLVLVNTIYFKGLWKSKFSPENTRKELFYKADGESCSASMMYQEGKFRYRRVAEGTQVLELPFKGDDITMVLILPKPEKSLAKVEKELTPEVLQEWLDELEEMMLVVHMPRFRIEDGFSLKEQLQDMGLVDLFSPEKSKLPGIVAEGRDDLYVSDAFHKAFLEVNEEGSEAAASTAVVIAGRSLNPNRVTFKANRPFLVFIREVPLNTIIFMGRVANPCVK", "details": "cited from earlier work"}, "[6]": {"target": "fibroblast growth factor-1 (Homo sapiens, UniProt P05230)", "sequence (P05230 whole entry, species assumed)": "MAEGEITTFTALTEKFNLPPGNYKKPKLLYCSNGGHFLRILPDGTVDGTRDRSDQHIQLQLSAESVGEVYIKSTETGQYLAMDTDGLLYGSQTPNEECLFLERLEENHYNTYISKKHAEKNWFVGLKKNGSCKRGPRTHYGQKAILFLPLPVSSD", "details": "cited from earlier work"}, "[7]": {"target": "T2, Recombinant human BMP-2 (bone morphogenetic protein 2) (human, UniProt P12643 283-396, biotinylated with Sulfo-NHS-Biotin (bBMP-2) in flow cytometry and BLI)", "T2 construct": "Bought protein; also called bBMP-2; bBMP", "T2 sequence (P12643 283-396 limits assumed)": "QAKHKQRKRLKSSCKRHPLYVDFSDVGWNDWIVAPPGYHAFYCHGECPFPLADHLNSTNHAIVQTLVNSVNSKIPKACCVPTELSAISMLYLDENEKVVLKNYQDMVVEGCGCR", "assay": "flow cytometry, yeast-displayed affibody titrated with bBMP-2 0.5-1000 nM", "text": "Yeast clones with names starting with the letter A were identified using the gating approach in FIG. 2A, and yeast clones with names starting with B were identified using the gate approach in FIG. 2B. The affibodies chosen for further characterization are boxed in the legend."}, "[8]": {"target": "T3, Recombinant VEGF165 (vascular endothelial growth factor) (UniProt P15692-4 27-191, biotinylated (bVEGF) in flow cytometry and BLI)", "T3 construct": "also called VEGF-A (165); bVEGF", "assay": "biolayer interferometry, 25 nM bVEGF on streptavidin probes, soluble affibody 15.625-125 nM", "protocol": "All samples were diluted in PBS solution containing 0.05% Tween-20® (PBST). […] Dissociation constants were obtained from a 1:1 global curve fitting of the data. n=4."}, "[9]": {"target": "PDGF receptor beta (PDGFRβ) on NIH/3T3-Luc cells (UniProt P05622 32-1098, limits assumed)", "sequence (P05622 32-1098 limits assumed)": "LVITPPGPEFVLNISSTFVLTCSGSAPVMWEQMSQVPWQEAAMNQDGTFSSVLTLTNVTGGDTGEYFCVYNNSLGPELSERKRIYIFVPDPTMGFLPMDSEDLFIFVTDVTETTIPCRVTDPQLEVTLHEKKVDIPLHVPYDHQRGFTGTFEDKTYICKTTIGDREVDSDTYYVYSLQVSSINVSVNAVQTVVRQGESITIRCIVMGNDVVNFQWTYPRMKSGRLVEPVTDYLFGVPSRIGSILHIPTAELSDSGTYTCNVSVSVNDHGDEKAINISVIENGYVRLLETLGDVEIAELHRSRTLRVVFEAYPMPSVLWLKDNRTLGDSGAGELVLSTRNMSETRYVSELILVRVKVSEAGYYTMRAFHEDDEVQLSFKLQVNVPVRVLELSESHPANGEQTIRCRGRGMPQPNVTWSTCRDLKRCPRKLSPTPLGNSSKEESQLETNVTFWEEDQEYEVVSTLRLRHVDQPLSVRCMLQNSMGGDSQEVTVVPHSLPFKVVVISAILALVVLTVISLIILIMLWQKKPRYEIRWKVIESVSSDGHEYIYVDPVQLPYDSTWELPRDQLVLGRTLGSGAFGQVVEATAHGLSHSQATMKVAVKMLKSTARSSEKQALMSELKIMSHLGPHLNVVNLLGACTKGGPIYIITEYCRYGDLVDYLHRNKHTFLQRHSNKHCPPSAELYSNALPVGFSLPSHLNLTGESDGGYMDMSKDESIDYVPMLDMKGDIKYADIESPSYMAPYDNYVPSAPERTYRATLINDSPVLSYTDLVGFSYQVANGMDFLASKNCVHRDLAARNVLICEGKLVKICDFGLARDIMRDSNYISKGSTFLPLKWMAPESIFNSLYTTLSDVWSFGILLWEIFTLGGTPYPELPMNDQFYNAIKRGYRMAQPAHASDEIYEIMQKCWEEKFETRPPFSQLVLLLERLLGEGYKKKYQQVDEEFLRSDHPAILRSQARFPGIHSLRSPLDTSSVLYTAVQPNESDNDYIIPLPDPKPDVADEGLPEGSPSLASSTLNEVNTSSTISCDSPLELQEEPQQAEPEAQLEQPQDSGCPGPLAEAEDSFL", "assay": "cell-based or functional assay"}, "[10]": {"test_system": "NIH/3T3-Luc cells", "assay": "PDGF bioactivity luciferase reporter assay", "type": "cell-based", "details": "PDGF for 5 hours", "protocol": "NIH/3T3 fibroblast cells (ATCC) were thawed, seeded at 10,000 cell/cm^2, and expanded in growth medium consisting of DMEM containing 10% (v/v) fetal bovine serum (R&D Systems, Minneapolis, MN). Cultures were routinely maintained at 37° C. and 5% CO2 and passaged at 60-70% confluence. After three passages of expansion, NIH/3T3 cells were grown in Eagle's Minimal Essential Medium (EMEM, ATCC) for a single passage prior to transfection. Transfection mixtures were prepared according to the manufacturer's protocols. Briefly, 2500 ng of luciferase reporter plasmid pGL4.33 [luc2P/SRE/Hygro] […]\nNIH/3T3-Luc cells were seeded at 31,250 cells/cm^2 and incubated in 100 μL of growth medium overnight in 96 well plates. […] Luminescence was then measured using SpectraMax 13 plate reader (Molecular Devices, San Jose, CA).\nPDGF bioactivity was assessed using NIH/3T3 cells transfected with a firefly luciferase gene reporter plasmid that links multiple ERK1/2 signaling pathways, including PDGFRβ signaling, to luciferase expression through a serum response element under the regulation of ERK1/2 (FIG. 30A). […] Firefly luciferase expression was assessed via the conversion of 5′-fluoroluciferin to oxyfluoroluciferin, which generates a stable luminescent output correlated to firefly luciferase concentration. […]"}}, "note": "Like-named read-outs stand apart in the source and are kept apart here."}
{"molecule": "FGF-2: Recombinant FGF-2 (PeproTech)", "values": [{"measurement": "HUVEC network length and branching", "setting": "[1]; 5, 10, or 50 ng/mL", "value": "limited impact"}]}
{"molecule": "VEGF", "values": [{"measurement": "maximum response", "setting": "[2]", "value": "approximately 36,000 relative luminescent units (RLUs)"}, {"measurement": "HUVEC network length and branching", "setting": "[1]", "value": "limited impact"}]}
{"molecule": "heparin", "values": [{"measurement": "Kd", "setting": "[3]", "value": 0.165, "unit": "µM"}, {"measurement": "Kd", "setting": "[4]", "value": 2.04, "unit": "µM"}, {"measurement": "Kd", "setting": "[5]", "value": 0.163, "unit": "µM"}, {"measurement": "Kd", "setting": "[6]", "value": 0.461, "unit": "µM"}]}
{"molecule": "B1", "values": [{"measurement": "EC50 (read off the curve)", "setting": "[7]", "value": "~0.02", "unit": "µM"}]}
{"molecule": "B2", "values": [{"measurement": "EC50 (read off the curve)", "setting": "[7]", "value": "~0.01", "unit": "µM"}]}
{"molecule": "B3", "values": [{"measurement": "binding result", "setting": "[8]", "value": "no binding (tested: 125 nM)"}]}
{"molecule": "B4", "values": [{"measurement": "50% effective dose (EC50), luminescence of NIH/3T3-Luc reporter cells", "setting": "[9]", "value": 2.94, "unit": "ng/mL"}]}
{"molecule": "B5", "values": [{"measurement": "maximal response", "setting": "[10]", "value": "23,655 relative luminescent units (RLUs)"}, {"measurement": "HUVEC network length and branching", "setting": "[1]; 5, 10, or 50 ng/mL", "value": "limited impact"}]}
